Experimental data as given in patent US9023861B2, “Anticancer combination of artemisinin-based drugs and other chemotherapeutic agents” (Sigma-Tau Industrie Farmaceutiche Riunite, S.p.A., priority 2009, dated 2015).

Key:
Type in all cases: cell-based
[1] = tested on: NCI-H460; assay: Synergistic interaction with DHA, combination index (Chou-Talalay, SRB); settings: drug in combination with DHA (1.0-20 μM), DHA 2 h before, drug 72 h
Description: Tumour cells were treated for 2 h with DHA prior to exposure to further chemotherapeutic agents for 72 h. Cell survival was then evaluated through sulphorodamine B test. Data gathered from the various combination experiments were analyzed using Calcusyn software (Biosoft, Ferguson, Mo.) through the elaboration of isobolograms to determine if the combinations of DHA and the various chemotherapeutic agents were additive, synergistic or antagonistic.

[2] = tested on: LoVo/Dx MDR; assay: Anti-proliferative activity, sulphorodamine B test; settings: LoVo/Dx MDR versus LoVo
Description: The biological activity of DHA and ART on tumour cells survival was evaluated. The latter were seeded in 96-well tissue culture plates at approximately 10% confluence and were allowed to attach and recover for at least 24 h before being exposed to DHA or ART for 24 h at 37° C. They were then washed to remove DHA and ART and left to recover for 48 hours in medium culture. The medium culture was then removed and cells were washed three times with PBS. The plates were then incubated for on ice for 1 hour with 200 μl of PBS and 50 μl of cold 80% TCA before being washed with distilled water, dried on paper and finally at 40° C. for 5 minutes. 200 μl of 0.4% sulphorodamine B in 1% acetic acid were added and the incubation was prolonged for 30 minutes. Sulphorodamine B was removed, and the plates were washed 3 times with 1% acetic acid. They were finally dried on paper followed by standing at 40° C. for 5 minutes. Then 200 μl Tris 10 mM were added, the plates were kept under stirring for 20 minutes. Cell survival was determined as optical density at 540 nm by means of a Multiskan spectrofluorimeter. The amount of cells killed was expressed as the percentage decrease in sulphorodamine B binding compared to control cultures. IC50 were generated with their standard deviations by the ALLFIT program.

[3] = tested on: A2780; assay: Synergistic interaction with DHA, combination index (Chou-Talalay, SRB); settings: drug in combination with DHA (1.0-20 μM), DHA 2 h before, drug 72 h
Description: Tumour cells were grown in RPMI 1640 containing 10% foetal bovine serum and treated as described in example 1 with the exception that instead of being exposed only to ART or DHA, the cell lines were treated with the drugs reported in table 2 in combination with DHA (from 1.0 μM to 20 μM, table 2). Tumour cells were treated for 2 h with DHA prior to exposure to further chemotherapeutic agents for 72 h. Cell survival was then evaluated through sulphorodamine B test. Data gathered from the various combination experiments were analyzed using Calcusyn software (Biosoft, Ferguson, Mo.) through the elaboration of isobolograms to determine if the combinations of DHA and the various chemotherapeutic agents were additive, synergistic or antagonistic. Viability assay results (SRB) were expressed as the fraction of cells killed when exposed to a single drug or to a drug combination with respect to the untreated cells. A combination index value (CI) was determined by means of the Chou-Talalay median effect method (T-C Chou, et al., Trends Pharmacol. Sci., 1983, 4, 450), wherein synergism can be defined when CI<1 and the lower the CI parameter value, the stronger the synergism (as defined by CalcuSyn 2.0 analyzer).

Row | Structure (SMILES) | Combination index values ED50 [1] | Combination index values ED75 [1] | Combination index values ED90 [1] | resistance index [2] | Combination index values ED50 [3] | Combination index values ED75 [3] | Combination index values ED90 [3]
1 | N.N.[Cl][Pt][Cl] [Cisplatin, cisplatin] | 0.79 | 0.88 | 0.98 | – | – | – | –
2 | COc1cccc2c1C(=O)c1c(O)c3c(c(O)c1C2=O)C[C@@](O)(C(=O)CO)C[C@@H]3O[C@H]1C[C@H](N)[C@H](O)[C@H](C)O1 [Doxorubicin, doxorubicin] | 0.76 | 0.53 | 0.37 | 63 | – | – | –
3 | NC(=O)c1cccc2cn(-c3ccc([C@@H]4CCCNC4)cc3)nc12 [MK-4827] | 0.83 | 0.83 | 0.84 | – | – | – | –
4 | O=c1[nH]c2ccccc2c2ccccc12 [Phenanthridinone] | 0.19 | 0.20 | 0.22 | – | 0.003 | 0.05 | 0.67
5 | CCc1c2c(nc3ccc(O)cc13)-c1cc3c(c(=O)n1C2)COC(=O)[C@]3(O)CC [SN-38] | 0.81 | 0.68 | 0.59 | – | – | – | –
